The values that follow come from patent publication US20250009763A1, “METHODS FOR EXTENDING LIFESPAN AND/OR DELAYING AGING” (priority 2023, published 2025).

The subject of data set [1] is aged C57BL/6J mice. As to the kind of experiment: Metabolic breath analysis test. In kind it is in vivo, mouse. The note with it: versus SD. The method, then: The metabolic breath analysis test was carryout out using the OxyletPro System. The male C57BL/6J mice fed a standard rodent chow with or without 50 mg/kg PN6 for 22 weeks (at 72 weeks of age; mid-term) were placed in the metabolic cages of the OxyletPro System for a 24-hour habituation period before actual recordings and remained in the cages for the following 48 hours. The OxyletPro System was equipped with an air supply and switching unit that provided independent flow control to the cage and collected the products produced therein. The gas analyzer was connected in tandem to the OxyletPro System for O2 and CO2 concentration analyses, from which the oxygen consumption (VO2), the carbon dioxide production (VCO2), and the energy expenditure (EE) were automatically calculated. SD, n=12; PN6, n=7.

The subject of another data set is HUVECs. As to the kind of experiment: Senescence-associated (SA)-β-gal staining. The note with it: HUVECs at PDL11, versus control without PN6; FIG. 3C. The data set is classed as cell-based, human. The method, then: For the population doubling (PD) assay, HUVECs (1×10^5 cells/3.5 cm dish) were propagated in the presence of DMSO (i.e., control) or PN6 (1 or 2 μM) until senescence (Day 41), and the cell numbers in each passage were recorded to generate a growth curve that represented the cumulative population doubling. The population doubling levels (PDLs) of HUVECs were calculated in every culture to indicate the proliferation capacity of HUVECs under the respective conditions. The population doublings (PDs) were estimated using the equation: PDL=3.32 (log (total viable cells at harvest/total viable cells at seeding). Also, HUVECs at passages PDL4 and PDL11 cultured in 0 μM (i.e., DMSO alone), 1 μM, or 2 μM PN6 were harvested for further analyses (e.g., western blot and SA-β-gal staining).
HUVECs at 90% confluency were collected, washed, and fixed with 2% formaldehyde and 0.2% glutaraldehyde for 5 minutes. The cells were then subjected to staining by incubation with a staining solution (40 mmol/l citric acid, sodium phosphate, pH 6.0, 1 mg/ml 5-bromo-4-chloro-3-isolyl-β-D-galactoside (X-gal, Sigma), 5 mmol/l potassium ferrocyanide, 5 mmol/l potassium ferricyanide, 150 mmol/l NaCl, and 2 mmol/l MgCl2) at 37° C. for 18-24 hours. The results of SA-β-gal-positive cells were observed by microscopy, and were counted for over 300 cells in at least three independent fields.

For data set [2], the system named is aged C57BL/6J mice. Put plainly: Intraperitoneal insulin tolerance test (IpITT). The data set is classed as in vivo, mouse. The note with it: 107 weeks of age, versus SD; FIGS. 4J-4K. How it is done: The male C57BL/6J mice, aged 107 weeks, were fasted for […] while having free access to water, and their body weights were measured before the test started. The test was conducted by fasting the mice for 5 hours, and then injecting them with 1.25 U/kg of human recombinant insulin. Blood droplets were collected from the tail vein just prior to the insulin injection (time 0; baseline), and at 15, 30, 60, and 90 minutes following the injection. Blood glucose levels were measured using a blood glucose meter (Accu-Chek Guide; Roche, DE).

The test system of data set [3] is tor1Δ deletion strain of yeast. Put plainly: RLS of tor1Δ deletion strain. The data set is classed as cell-based, Saccharomyces cerevisiae. The note with it: data not shown.
Data set [4] relates to aged C57BL/6J mice. Put plainly: Survival, body weight and food intake of aged mice.
Data set [5] has as its system intracellular NAD^+ of WT yeast cells (BY4741). As to the kind of experiment: Intracellular NAD^+ content. The note with it: 25 μM, 2 hours; FIG. 2B. The data set is classed as cell-based, Saccharomyces cerevisiae. The method, then: WT yeast cells (BY4741; […] per group) were incubated in the presence of DMSO (control) or PN6 (25 μM), or cultured in YEPD medium adjusted to CR 0.1%, for 2 hours, before being harvested. The harvested cells were extracted with 250 μl of 1 M glacial formic acid saturated with butanol, incubated for 30 minutes on ice. Then, 62.5 μl of 100% trichloroacetic acid (TCA) (w/v) was added to each sample, and the samples were incubated on ice for an additional 15 minutes. The samples were pelleted by centrifugation at 17,000×g and 4° C. for 5 minutes, and the supernatant was transferred to another eppendorf tube. […]
For analysis, each supernatant or standard sample was divided into two sets: the control set and the test set (150 μl per set), each of which was assembled with an alcohol dehydrogenase (ADH) reaction buffer (345 μl, containing 360 mM Tris (pH 9.7), 240 mM lysine, 0.24% (v/v) EtOH). […] After incubation at room temperature for 10 minutes, the absorbance at 340 nm of each sample was measured by a microplate reader. To determine the NAD^+ levels in each supernatant or standard sample, the absorbance values of the test set (the ADH catalytic set) were divided by the corresponding values of the control set (the water set), which represented the basal NADH levels.

Data set [6] relates to aged C57BL/6J mice. Put plainly: Grip strength test. In kind it is in vivo, mouse. The note with it: forelimbs, hindlimbs and all four limbs; mid-term and long-term; versus SD group; FIGS. 4E-4G. The method, then: The grip strength of the male C57BL/6J mice was measured at 87 weeks (mid-term) and 111 weeks (long-term) of age using an adjustable metallic grid mounted with a force sensor (DTG-5, DigiTech, JP). To conduct the test, the mice were placed on the aforementioned test device and were held gently by the tail, allowing them to grip the grid with forelimbs, hindlimbs, or four limbs (for measuring 2-paw and 4-paw grip strength, respectively). The device automatically measured and recorded the peak force in grams (g). Five trials were performed for each test, and the mean values were used to determine the grip strength of each mouse. Mid-term: SD, n=30; PN6, n=8; long-term: SD, n=23; PN6, n=8.

Molecules are shown by their SMILES.

In the case of `CCC(CC[C@@H](C)C1CCC2C3CC(=O)[C@H]4C[C@@H](O)CC[C@]4(C)C3CC[C@@]21C)C(C)C` (stereo in doubt) [PN6, (24S)-3β-hydroxy-5α-stigmastan-6-one], the “rate of O2 consumption” value in the data set on aged C57BL/6J mice [1] (FIG. 4L) is “significantly higher”. Moreover, the “rate of CO2 elimination” value with aged C57BL/6J mice [1] (FIG. 4M) is “significantly higher”. Besides, the respiratory quotient result with aged C57BL/6J mice [1] (FIG. 4N) was “higher”. Moreover, in the data set with aged C57BL/6J mice [1] (FIG. 4O), the energy expenditure result was “higher”. For the same compound, in the data set on HUVECs, the “number of SA-β-gal-positive senescent cells” value is listed as “decrease in the number”. Besides, the insulin sensitivity result in the data set on aged C57BL/6J mice [2] is on record as “significantly higher”. Further, in data set [3], the “ability to increase yeast RLS upon deletion of the TOR1 gene” value is listed as “not affected”. For the same compound, in the data set with aged C57BL/6J mice [4] (chow containing 50 mg/kg PN6, FIG. 4B), the “trajectories of body weight” value was “remained in a steady state”. Also, the “lifespan of the aged mice” value in the data set with aged C57BL/6J mice [4] (chow containing 50 mg/kg PN6, versus SD group, FIG. 4A) is listed as “significantly increased the lifespan”. The food intake entry in the data set on aged C57BL/6J mice [4] (versus SD group, entire course of the experiment, FIG. 4C) is listed as “did not diverge”. In data set [5], the “NAD^+ content of yeast” value is listed as “significantly increased”. Besides, the grip strength result with aged C57BL/6J mice [6] is reported as “increased grip strength”.
